Experimental data reported in EP4810052A2, “HCRHR2 SELECTIVE POLYPEPTIDES” (Gubra A/S, priority 2023, dated 2026).
Like-named read-outs stand apart in the source and are kept apart here. Starred links: 1 amine or outer side, 2 acyl side, 3 side chain; linkers in the order of their positions; H or OH if unused. Non-standard residues stand in square brackets, D forms with d. Residues, ends and D or L forms follow the SMILES beside them. Groups on a side chain read outwards from the residue. *: point of attachment. C20 diacid = O=C(O)CCCCCCCCCCCCCCCCCCC(=O)*; γGlu = O=C(O)[C@H](CCC(=O)[*:2])N[*:1]; NMeI = CC[C@H](C)[C@H](NC)C(=O)O; Nle = CCCC[C@H](N)C(=O)O; AEEA = NCCOCCOCC(=O)O; Aib = CC(C)(N)C(=O)O

Assays:
[1] = target: T1, hCRHR2 (Homo sapiens, UniProt Q13324); assay: HTRF cAMP assay, determination of hCRHR2 potency (peptide libraries 5 conc., purified peptides 11 conc.); assay type: cell-based
T1 sequence (Q13324 1-411): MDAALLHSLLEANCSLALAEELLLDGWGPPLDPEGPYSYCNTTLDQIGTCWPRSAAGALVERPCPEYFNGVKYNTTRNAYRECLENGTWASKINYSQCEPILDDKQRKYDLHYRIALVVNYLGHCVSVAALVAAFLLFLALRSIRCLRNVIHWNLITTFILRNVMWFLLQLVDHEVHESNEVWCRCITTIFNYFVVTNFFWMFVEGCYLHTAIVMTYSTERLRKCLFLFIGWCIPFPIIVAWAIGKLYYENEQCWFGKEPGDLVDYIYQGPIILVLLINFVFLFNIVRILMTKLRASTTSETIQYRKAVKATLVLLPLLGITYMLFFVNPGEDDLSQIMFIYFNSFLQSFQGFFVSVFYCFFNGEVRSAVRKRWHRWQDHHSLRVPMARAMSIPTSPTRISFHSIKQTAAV
From the text: HTRF (CisBio) cAMP assay: The assay technology has thoroughly been described in the CisBio HTRF cAMP assay Kit manual (# 62AM4PEC). Briefly, time resolved fluorescence technic was applied to measure cAMP. This technic is based on a competitive immunoassay using cryptate-labelled anti-cAMP antibody and d2-labeled cAMP. In the absence of cellular cAMP, the anti-cAMP cryptate conjugate may get into proximity to cAMP-d2 conjugate and energy (FRET) can be transferred from cryptate to d2.
CHO-K1 cells stably expressing the human corticotropin-releasing hormone receptor 2 (Eurofins/DiscoverX, Cat #95-0048C2 hCRHR2 stable monoclonal cell lines) were used as cells in suspension, brought to life from frozen cell stocks immediately before assay performance.
Concentration-response evaluation of compounds was performed with 5 concentrations of agonist peptides and EC50 values were calculated by nonlinear regression using sigmoid concentration-response with variable slope.
Concentration-response evaluation of compounds was performed with 11 concentrations of agonist peptides and EC50 values were calculated by nonlinear regression using sigmoid concentration-response with variable slope.

[2] = target: T2, hCRHR1 (Homo sapiens, UniProt P34998); assay: HTRF cAMP assay, determination of hCRHR1 potency (peptide libraries 5 conc., purified peptides 11 conc.); assay type: cell-based
T2 sequence (P34998 24-415): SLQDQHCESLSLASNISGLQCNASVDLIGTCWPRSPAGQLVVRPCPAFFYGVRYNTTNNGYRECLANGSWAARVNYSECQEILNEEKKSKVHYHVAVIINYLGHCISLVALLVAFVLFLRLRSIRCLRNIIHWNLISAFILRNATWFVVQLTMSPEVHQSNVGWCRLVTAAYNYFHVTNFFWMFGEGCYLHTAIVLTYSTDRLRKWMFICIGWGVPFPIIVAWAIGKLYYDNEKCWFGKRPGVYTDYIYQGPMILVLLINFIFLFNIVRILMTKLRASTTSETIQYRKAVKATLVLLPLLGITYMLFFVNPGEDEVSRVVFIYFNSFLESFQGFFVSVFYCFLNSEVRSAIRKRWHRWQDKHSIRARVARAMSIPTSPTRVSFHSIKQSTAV
From the text: HTRF (CisBio) cAMP assay: The assay technology has thoroughly been described in the CisBio HTRF cAMP assay Kit manual (# 62AM4PEC). Briefly, time resolved fluorescence technic was applied to measure cAMP. This technic is based on a competitive immunoassay using cryptate-labelled anti-cAMP antibody and d2-labeled cAMP. In the absence of cellular cAMP, the anti-cAMP cryptate conjugate may get into proximity to cAMP-d2 conjugate and energy (FRET) can be transferred from cryptate to d2. CHO-K1 cells stably expressing the human corticotropin-releasing hormone receptor 1 (Eurofins/DiscoverX Cat #95-0047C2 hCRHR1 stable monoclonal cell lines) were used as cells in suspension, brought to life from frozen cell stocks immediately before assay performance. […] Concentration-response evaluation of compounds was performed with 5 concentrations of agonist peptides and EC50 values were calculated by nonlinear regression using sigmoid concentration-response with variable slope. Concentration-response evaluation of compounds was performed with 11 concentrations of agonist peptides and EC50 values were calculated by nonlinear regression using sigmoid concentration-response with variable slope.

[3] = Table 3, matched molecular pairs X^38 L vs Nle, peptide library of Example 4, read-out: hCRHR2 pEC50 (converted)
[4] = Table 3, matched molecular pairs X^38 L vs Nle, peptide library of Example 4, read-out: hCRHR1 pEC50 (converted)

EC50 [1, 3] | EC50 [2, 4] | SMILES | also measured
– | – | CCCC[C@H](NC(=O)[C@@H](NC(=O)[C@H](CCC(=O)O)NC(=O)C(C)(C)NC(=O)[C@H](CC(N)=O)NC(=O)[C@@H](NC(=O)[C@H](CCCCNC(=O)COCCOCCNC(=O)COCCOCCNC(=O)CC[C@H](NC(=O)CC[C@H](NC(=O)CCCCCCCCCCCCCCCCCCC(=O)O)C(=O)O)C(=O)O)NC(=O)[C@H](C)NC(=O)[C@H](CCC(N)=O)NC(=O)[C@H](CCC(=O)O)NC(=O)[C@H](CCCNC(=N)N)NC(=O)[C@H](C)NC(=O)[C@H](C)NC(=O)[C@H](CCCNC(=N)N)NC(=O)[C@H](C)NC(=O)[C@H](CCCNC(=N)N)NC(=O)[C@H](C)NC(=O)[C@H](CCC(N)=O)NC(=O)[C@H](C)NC(=O)[C@H](CC(C)C)NC(=O)[C@H](CC(C)C)NC(=O)[C@@H](NC(=O)[C@H](CCC(N)=O)NC(=O)[C@H](CC(C)C)NC(=O)[C@H](CC(C)C)NC(=O)CNC(=O)[C@@H](NC(=O)[C@@H]1CCCN1C(=O)[C@@H](NC(=O)[C@H](CC(=O)O)NC(=O)[C@H](CC(C)C)NC(=O)[C@H](CO)NC(=O)[C@H](CC(C)C)NC(=O)[C@@H](NC(=O)[C@@H](NC)[C@@H](C)CC)C(C)C)C(C)C)[C@@H](C)CC)[C@@H](C)CC)[C@@H](C)O)[C@@H](C)CC)C(=O)N[C@@H](C)C(=O)N[C@@H](CCC(=O)O)C(=O)N[C@H](C(N)=O)C(C)C [compound 196] (H-[NMeI]VLSLDVPIGLLQILLAQARARAAREQAK([AEEA-AEEA-γGlu-γGlu-C20 diacid])TN[Aib]EI[Nle]AEV-NH2) | EC50 ([1]; Table 4, library peptides having X^38 = Nle, read-out: hCRHR2 pEC50 (converted)): 0.0316 nM; EC50 ([2]; Table 4, library peptides having X^38 = Nle, read-out: hCRHR1 pEC50 (converted)): 1000 nM
– | – | CC[C@H](C)[C@H](N)C(=O)N[C@H](C(=O)N[C@@H](CC(C)C)C(=O)N[C@@H](CO)C(=O)N[C@@H](CC(C)C)C(=O)N[C@@H](CC(=O)O)C(=O)N[C@H](C(=O)N1CCC[C@H]1C(=O)N[C@H](C(=O)NCC(=O)N[C@@H](CC(C)C)C(=O)N[C@@H](CC(C)C)C(=O)N[C@@H](CCC(N)=O)C(=O)N[C@H](C(=O)N[C@@H](CC(C)C)C(=O)N[C@@H](CC(C)C)C(=O)N[C@@H](CCC(=O)O)C(=O)N[C@@H](CCC(N)=O)C(=O)N[C@@H](C)C(=O)N[C@@H](CCCNC(=N)N)C(=O)N[C@@H](C)C(=O)N[C@@H](CCCNC(=N)N)C(=O)N[C@@H](C)C(=O)N[C@@H](CCC(N)=O)C(=O)N[C@@H](CCCNC(=N)N)C(=O)N[C@@H](CCC(=O)O)C(=O)N[C@@H](CCC(N)=O)C(=O)N[C@@H](C)C(=O)N[C@@H](CCCCNC(=O)COCCOCCNC(=O)COCCOCCNC(=O)CC[C@H](NC(=O)CC[C@H](NC(=O)CCCCCCCCCCCCCCCCCCC(=O)O)C(=O)O)C(=O)O)C(=O)N[C@H](C(=O)N[C@@H](CC(N)=O)C(=O)N[C@@H](C)C(=O)N[C@@H](CCC(=O)O)C(=O)N[C@H](C(=O)N[C@@H](CC(C)C)C(=O)N[C@@H](C)C(=O)N[C@@H](CCC(=O)O)C(=O)N[C@H](C(N)=O)[C@@H](C)CC)[C@@H](C)CC)[C@@H](C)O)[C@@H](C)CC)[C@@H](C)CC)C(C)C)C(C)C [compound 64] (H-IVLSLDVPIGLLQILLEQARARAQREQAK([AEEA-AEEA-γGlu-γGlu-C20 diacid])TNAEILAEI-NH2) | EC50 ([1]; library peptides, matched molecular pairs L vs Nle in position X^38, read-out: Potency hCRHR2 pEC50 (converted)): 0.126 nM; EC50 ([2]; library peptides, matched molecular pairs L vs Nle in position X^38, read-out: Potency hCRHR1 pEC50 (converted)): 25100 nM
0.316 nM | 251 nM | CCCC[C@H](NC(=O)[C@@H](NC(=O)[C@H](CCC(=O)O)NC(=O)[C@H](C)NC(=O)[C@H](CC(N)=O)NC(=O)[C@@H](NC(=O)[C@H](CCCCNC(=O)COCCOCCNC(=O)COCCOCCNC(=O)CC[C@H](NC(=O)CC[C@H](NC(=O)CCCCCCCCCCCCCCCCCCC(=O)O)C(=O)O)C(=O)O)NC(=O)[C@H](C)NC(=O)[C@H](CCC(N)=O)NC(=O)[C@H](CCC(=O)O)NC(=O)[C@H](CCCNC(=N)N)NC(=O)[C@H](C)NC(=O)[C@H](C)NC(=O)[C@H](CCC(=O)O)NC(=O)[C@H](C)NC(=O)[C@H](CCCNC(=N)N)NC(=O)[C@H](C)NC(=O)[C@H](CCC(N)=O)NC(=O)[C@H](CCC(=O)O)NC(=O)[C@H](CC(C)C)NC(=O)[C@H](CC(C)C)NC(=O)[C@@H](NC(=O)[C@H](CCC(N)=O)NC(=O)[C@H](CC(C)C)NC(=O)[C@H](CC(C)C)NC(=O)CNC(=O)[C@@H](NC(=O)[C@@H]1CCCN1C(=O)[C@@H](NC(=O)[C@H](CC(=O)O)NC(=O)[C@H](CC(C)C)NC(=O)[C@H](CO)NC(=O)[C@H](CC(C)C)NC(=O)[C@@H](NC(=O)[C@@H](N)[C@@H](C)CC)C(C)C)C(C)C)[C@@H](C)CC)[C@@H](C)CC)[C@@H](C)O)[C@@H](C)CC)C(=O)N[C@@H](C)C(=O)N[C@@H](CCC(=O)O)C(=O)N[C@H](C(N)=O)C(C)C [SEQ ID NO: 26] (H-IVLSLDVPIGLLQILLEQARAEAAREQAK([AEEA-AEEA-γGlu-γGlu-C20 diacid])TNAEI[Nle]AEV-NH2) | –
0.794 nM | 6310 nM | CC[C@H](C)[C@H](N)C(=O)N[C@H](C(=O)N[C@@H](CC(C)C)C(=O)N[C@@H](CO)C(=O)N[C@@H](CC(C)C)C(=O)N[C@@H](CC(=O)O)C(=O)N[C@H](C(=O)N1CCC[C@H]1C(=O)N[C@H](C(=O)NCC(=O)N[C@@H](CC(C)C)C(=O)N[C@@H](CC(C)C)C(=O)N[C@@H](CCC(N)=O)C(=O)N[C@H](C(=O)N[C@@H](CC(C)C)C(=O)N[C@@H](CC(C)C)C(=O)N[C@@H](CCC(=O)O)C(=O)N[C@@H](CCC(N)=O)C(=O)N[C@@H](C)C(=O)N[C@@H](CCCNC(=N)N)C(=O)N[C@@H](C)C(=O)N[C@@H](CCC(=O)O)C(=O)N[C@@H](C)C(=O)N[C@@H](C)C(=O)N[C@@H](CCCNC(=N)N)C(=O)N[C@@H](CCC(=O)O)C(=O)N[C@@H](CCC(N)=O)C(=O)N[C@@H](C)C(=O)N[C@@H](CCCCNC(=O)COCCOCCNC(=O)COCCOCCNC(=O)CC[C@H](NC(=O)CC[C@H](NC(=O)CCCCCCCCCCCCCCCCCCC(=O)O)C(=O)O)C(=O)O)C(=O)N[C@H](C(=O)N[C@@H](CC(N)=O)C(=O)N[C@@H](C)C(=O)N[C@@H](CCC(=O)O)C(=O)N[C@H](C(=O)N[C@@H](CC(C)C)C(=O)N[C@@H](C)C(=O)N[C@@H](CCC(=O)O)C(=O)N[C@H](C(N)=O)C(C)C)[C@@H](C)CC)[C@@H](C)O)[C@@H](C)CC)[C@@H](C)CC)C(C)C)C(C)C [SEQ ID NO: 25] (H-IVLSLDVPIGLLQILLEQARAEAAREQAK([AEEA-AEEA-γGlu-γGlu-C20 diacid])TNAEILAEV-NH2) | –
